Reference: US20260022118A1, “HETEROCYCLIC COMPOUNDS AS NRAS INHIBITORS” (Board of Regents, The University of Texas System, priority 2023, published 2026)

What was measured:
NRAS G12D C118S = NRAS G12D C118S (Homo sapiens (Human), UniProt P01111, C118S/G12D); assay: NRas G12D Surface Plasmon Resonance (SPR) binding assay; conditions: Avi-tagged biotinylated NRAS G12D C118S on streptavidin chip, 25° C., 1:1 kinetic or steady-state fit
Protocol: NRas G12D Surface Plasmon Resonance (SPR) Binding Assay
This Example illustrates that exemplary compounds and salts thereof described herein bind to NRAS G12D as measured by surface plasmon resonance (SPR).
Two liters of 1.03× running buffer (1.03×HBS-P+pH 7.4, containing 0.0103 M HEPES, 0.1545 M NaCl, 0.0515% v/v Surfactant P20 (Cytiva®, BR100671); 5.15 mM MgCl2 (Invitrogen, AM9530G); 0.515 mM TCEP, pH 8.0 (GoldBio®, TCEP25)) was prepared and filter sterilized using a 0.22 μm filter. A 1-L volumetric flask was filled partway with this buffer. A 30-mL volumetric flask was used to measure 30 mL of 100% DMSO (Sigma Aldrich®, 41639-100ML) which was added to the 1-L flask. The solution in the 1-L flask was brought up to 1 L with 1.03× buffer, resulting in a 1.0× assay running buffer containing 1.0×HBS-P+, 5 mM MgCl2, […], and 3% DMSO. Remaining 1.03× buffer was used for preparation of samples and immobilization running buffer.
Samples were prepared in a standard conical-bottomed 384-well microplate by adding 2 μL 10 mM DMSO cpd stock to each well, followed by 8 μL DMSO. A control compound was selected based off of its relatively “fast” kinetics that could be fitted by 1:1 kinetic fitting, as well as by steady-state fitting. Control wells for periodic injection to assess protein activity throughout the assay were also assembled, by diluting 10 mM compound 1:30 in DMSO, then adding 20 μL to the appropriate wells, such that the final concentration of compound would be 10 μM, and the final concentration of DMSO would be 3%. A Biomek™ FXP Laboratory Automation Workstation was used to stamp 20 μL DMSO into all sample wells—minus the control wells—according to the plate map, and then serially dilute 1:3 by mixing and aspirating 10 μL, delivering into the 20 μL of DMSO in the next well, resulting in 10-point serial dilution curves. A Biotek™ Multiflo EL406 Washer Dispenser was used to deliver 80 μL of 1.03× buffer to the compound plate. The plate was mixed 10× by FX, then a final dilution was performed by stamping 18 μL from the compound plate into a 384-well deep-well plate that had also been previously filled with 102 μL 1.03× buffer via the Multiflo. The solution in the deep-well plate was mixed 10× by FX, then sealed with a 384-well microplate foil from Cytiva® (Cytiva® BR100577) and placed on an orbital shaker for 30 minutes at 1000 RPM to ensure complete mixing of the DMSO solution in the buffer. A solvent correction curve was also prepared by making a 4% DMSO solution in 1.03× buffer and diluting in 1.03× buffer such that there were eight solutions of decreasing DMSO concentrations resulting in a high DMSO concentration of 4% and a low concentration of 2% DMSO.
Immobilization running buffer was prepared in a 200-mL volume by diluting 1.03× running buffer prepared above to 1.0×. A Cytiva® Streptavidin chip (Cytiva®, 29104992) was docked into a Biacore™ S200 instrument, and the instrument was then primed three times into the immobilization running buffer. A protein stock of Avi-tagged NRAS G12D C118S was prepared in-house and biotinylated using the Bulk BirA: BirA biotin-protein ligase bulk reaction kit from Avidity (Avidity®, Bulk BirA). Upon completion of the biotinylation reaction, Amicon® ultra 0.5-mL Centrifugal Filters with a MWCO of 3 k Da (Millipore® UFC500396) were used to reduce the free biotin concentration below 0.1 μM in the protein sample over the course of eight desalting cycles, according to the manufacturer's protocol. Resulting protein concentration was not measured directly as an accurate protein concentration is not required for immobilizing protein on the chip surface; however, a theoretical yield of ≤1.5 mg/mL was estimated based off of retained volumes during the desalting process. Reagents for immobilization were prepared as instructed in the Biacore™ 5200 Control Software Immobilization Wizard, including solutions of 1 M NaCl in 50 mM NaOH, and 1 M NaCl in 50 mM NaOH and 50% isopropyl alcohol. […]

[1] = tested on: THP-1 cells expressing G12D (NRAS G12D); assay: Inhibition of NRAS G12D-mediated phosphorylation of ERK (AlphaLISA p-ERK1/2) in THP-1 cells; assay type: cell-based; conditions: Homo sapiens, THP-1, 2 h, 2 hours incubation, HBSS with 0% or 10% FBS, p-ERK1/2 (Thr202/Tyr204) AlphaLISA, read-out: pERK THP-1 IC50
Protocol: Inhibition of NRAS G12D-Mediated Phosphorylation of ERK by Exemplary Compounds of Formulas I, II, and III.
This Example illustrates that exemplary compounds and salts thereof described herein inhibit the phosphorylation of ERK downstream of NRAS G12D.
THP-1 cells (ATCC TIB-202) expressing G12D were maintained in RPMI-1640 medium supplemented with 10% fetal bovine serum (FBS), 0.05 mM 2-mercaptoethanol, and penicillin/streptomycin. Cells (20,000/well) were seeded onto a 384 well plate in 20 μL of HBSS supplemented with 0% or 10% FBS. Cells were incubated in the absence or presence of various concentrations of test compound (final 1% DMSO) for 2 hours. p-ERK expression was assessed using the AlphaLISA SureFire Ultra p-ERK1/2 (Thr202/Tyr204) (PerkinElmer®, ALSU-PERK-A10K) following manufacturer recommendation. Plates were read on a PerkinElmer® Envision Multimode plate reader. Dose-response curves were analyzed using IC50 regression curve fitting (GeneData Screener). Curves were plotted as a percent control and normalized by high controls without inhibitor (100%), and low controls (0%) containing 1 μM of trametinib, a potent MEK inhibitor.

Sequence of NRAS G12D C118S (P01111 whole entry G12D/C118S): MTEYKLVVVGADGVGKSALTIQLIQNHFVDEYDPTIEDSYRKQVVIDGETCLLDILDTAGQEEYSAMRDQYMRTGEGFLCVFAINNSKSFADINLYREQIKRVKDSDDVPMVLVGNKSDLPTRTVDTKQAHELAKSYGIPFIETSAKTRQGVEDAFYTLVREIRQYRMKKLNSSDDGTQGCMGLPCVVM

Compound | Kd (NRAS G12D C118S) [µM] | IC50 [1] [µM]
C#Cc1c(F)ccc2cc(O)cc(-c3ncc4c(N5CC6CCC(C5)N6)nn(CC)c4c3F)c12 [Example 8, 4-(3-(3,8-diazabicyclo[3.2.1]octan-3-yl)-1-ethyl-7-fluoro-1H-pyrazolo[4,3-c]pyridin-6-yl)-5-ethynyl-6-fluoronaphthalen-2-ol] | 1.92 | 11.1
C#Cc1c(F)ccc2cc(O)cc(-c3ncc4c(N5CC6CCC(C5)N6)nn(C)c4c3F)c12 [Example 13, 4-(3-(3,8-diazabicyclo[3.2.1]octan-3-yl)-7-fluoro-1-methyl-1H-pyrazolo[4,3-c]pyridin-6-yl)-5-ethynyl-6-fluoronaphthalen-2-ol] | 0.891 | 6.74
C#Cc1c(F)ccc2cc(O)cc(-c3ncc4c(N5CC6CCC(C5)N6)nn(CCC)c4c3F)c12 [Example 14, 4-(3-(3,8-diazabicyclo[3.2.1]octan-3-yl)-7-fluoro-1-propyl-1H-pyrazolo[4,3-c]pyridin-6-yl)-5-ethynyl-6-fluoronaphthalen-2-ol] | 4.41 | 
C#Cc1c(F)ccc2cc(O)cc(-c3ncc4c(N5CC6CCC(C5)N6)nn(CC5CCOC5)c4c3F)c12 (stereo not drawn) [Example 15, 4-(3-(3,8-diazabicyclo[3.2.1]octan-3-yl)-7-fluoro-1-((tetrahydrofuran-3-yl)methyl)-1H-pyrazolo[4,3-c]pyridin-6-yl)-5-ethynyl-6-fluoronaphthalen-2-ol] | 5.97 | 
C#Cc1c(F)ccc2cc(O)cc(-c3ncc4c(N5CC6CCC(C5)N6)nn(C5CCC5)c4c3F)c12 [Example 16, 4-(3-(3,8-diazabicyclo[3.2.1]octan-3-yl)-1-cyclobutyl-7-fluoro-1H-pyrazolo[4,3-c]pyridin-6-yl)-5-ethynyl-6-fluoronaphthalen-2-ol] | 5.65 | 
C#Cc1c(F)ccc2cc(O)cc(-c3ncc4c(N5CC6CCC(C5)N6)n[nH]c4c3F)c12 [Example 17, 4-(3-(3,8-diazabicyclo[3.2.1]octan-3-yl)-7-fluoro-1H-pyrazolo[4,3-c]pyridin-6-yl)-5-ethynyl-6-fluoronaphthalen-2-ol] | 30.8 | 
C#Cc1c(F)ccc2cc(O)cc(-c3cc4[nH]nc(N5CC6CCC(C5)N6)c4cn3)c12 [Example 18, 4-(3-(3,8-diazabicyclo[3.2.1]octan-3-yl)-1H-pyrazolo[4,3-c]pyridin-6-yl)-5-ethynyl-6-fluoronaphthalen-2-ol] | 40.5 | 
C#Cc1c(F)ccc2cc(O)cc(-c3cc4c(cn3)c(N3C5CCC3CNC5)nn4C)c12 [Example 19, 4-(3-(3,8-diazabicyclo[3.2.1]octan-8-yl)-1-methyl-1H-pyrazolo[4,3-c]pyridin-6-yl)-5-ethynyl-6-fluoronaphthalen-2-ol] | 6.1 | 
C#Cc1c(F)ccc2cc(O)cc(-c3ncc4c([C@H]5[C@@H]6CNC[C@@H]65)nn(CC)c4c3F)c12 [Example 20, 4-(3-((1R,5S,6r)-3-azabicyclo[3.1.0]hexan-6-yl)-1-ethyl-7-fluoro-1H-pyrazolo[4,3-c]pyridin-6-yl)-5-ethynyl-6-fluoronaphthalen-2-ol] | 0.159 | 
C#Cc1c(F)ccc2cc(O)cc(-c3cc4c(cn3)c([C@H]3[C@@H]5CNC[C@@H]53)cn4C)c12 [Example 22, 4-(3-((1R,5S,6s)-3-azabicyclo[3.1.0]hexan-6-yl)-1-methyl-1H-pyrrolo[3,2-c]pyridin-6-yl)-5-ethynyl-6-fluoronaphthalen-2-ol] | 1.64 | 
C#Cc1c(F)ccc2cc(O)cc(-c3ncc4c([C@H]5[C@@H]6CNC[C@@H]65)nn(C(C)C)c4c3F)c12 [Example 24, 4-(3-((1R,5S,6r)-3-azabicyclo[3.1.0]hexan-6-yl)-7-fluoro-1-isopropyl-1H-pyrazolo[4,3-c]pyridin-6-yl)-5-ethynyl-6-fluoronaphthalen-2-ol] | 0.824 | 10.7

Results, then the molecule that gave them:

Kd (NRAS G12D C118S) [µM] | IC50 [1] [µM] | Compound
0.085 | 0.925 | C#Cc1c(F)ccc2cc(O)cc(-c3ncc4c([C@H]5[C@@H]6CNC[C@@H]65)nn(C)c4c3F)c12 [Example 3, 4-(3-((1R,5S,6r)-3-azabicyclo[3.1.0]hexan-6-yl)-7-fluoro-1-methyl-1H-pyrazolo[4,3-c]pyridin-6-yl)-5-ethynyl-6-fluoronaphthalen-2-ol]
0.0205 | 0.394 | C#Cc1c(F)ccc2cc(O)cc(-c3ncc4c([C@H]5[C@@H]6CNC[C@@H]65)nn(C5CC5)c4c3F)c12 [Example 4, 4-(3-((1R,5S,6r)-3-azabicyclo[3.1.0]hexan-6-yl)-1-cyclopropyl-7-fluoro-1H-pyrazolo[4,3-c]pyridin-6-yl)-5-ethynyl-6-fluoronaphthalen-2-ol 2,2,2-trifluoroacetate]
0.0101 | 0.269 | C#Cc1c(F)ccc2cc(O)cc(-c3ncc4c([C@H]5[C@@H]6CNC[C@@H]65)cn(C5CC5)c4c3F)c12 [Example 5, 4-(3-((1R,5S,6s)-3-azabicyclo[3.1.0]hexan-6-yl)-1-cyclopropyl-7-fluoro-1H-pyrrolo[3,2-c]pyridin-6-yl)-5-ethynyl-6-fluoronaphthalen-2-ol]
8.35 |  | C#Cc1c(F)ccc2cc(O)cc(-c3ncc4c(NCC5(N(C)C)CCC5)nn(CC)c4c3F)c12 [Example 12, 4-(3-(((1-(dimethylamino)cyclobutyl)methyl)amino)-1-ethyl-7-fluoro-1H-pyrazolo[4,3-c]pyridin-6-yl)-5-ethynyl-6-fluoronaphthalen-2-ol]
1.84 | 13 | C#Cc1c(F)ccc2cc(O)cc(-c3ncc4c([C@H]5[C@@H]6CNC[C@@H]65)c(C)n(C)c4c3F)c12 [Example 21, 4-(3-((1R,5S,6s)-3-azabicyclo[3.1.0]hexan-6-yl)-7-fluoro-1,2-dimethyl-1H-pyrrolo[3,2-c]pyridin-6-yl)-5-ethynyl-6-fluoronaphthalen-2-ol]
13.7 |  | C#Cc1c(F)ccc2cc(O)cc(-c3ncc4c([C@H]5[C@@H]6CNC[C@@H]65)c(CO)n(C)c4c3F)c12 [Example 23, 4-(3-((1R,5S,6s)-3-azabicyclo[3.1.0]hexan-6-yl)-7-fluoro-2-(hydroxymethyl)-1-methyl-1H-pyrrolo[3,2-c]pyridin-6-yl)-5-ethynyl-6-fluoronaphthalen-2-ol]
